Test results published in article PMC7497253, “Structure‐Based Macrocyclization of Substrate Analogue NS2B‐NS3 Protease Inhibitors of Zika, West Nile and Dengue viruses” (Chemmedchem, 2020).
Like-named read-outs stand apart in the source and are kept apart here. Starred links: 1 amine or outer side, 2 acyl side, 3 side chain; linkers in the order of their positions; H or OH if unused. Positions of bridges follow the written chain, without caps; N, C: chain ends. Non-standard residues stand in square brackets, D forms with d. Residues, ends and D or L forms follow the SMILES beside them. dεLys(Nα-amidino) = N=C(N)N[C@H](CCCCN[*:1])C(=O)[*:2]; NHCH2(1,3-C6H4)CH2CO = O=C(Cc1cccc(CN[*:1])c1)[*:2]; βAla = NCCC(=O)O

Columns and labels:
Format in all cases: biochemical
[1] = biological target: T1, bD4Pro (unlinked binary dengue-4 virus NS2B-NS3 protease) (Dengue virus type 4, UniProt Q2YHF2); assay: Enzyme kinetics with bD4Pro, substrate Benzoyl-Nle-Lys-Arg-Arg-AMC
T1 construct: The viral protease consists of the N‐terminal third of the nonstructural protein NS3; NS3 has to form a complex with its cofactor NS2B to achieve proteolytic activity; His6 (cleaved yes); made in house
T1 sequence (Q2YHF2 1475-1652 limits assumed): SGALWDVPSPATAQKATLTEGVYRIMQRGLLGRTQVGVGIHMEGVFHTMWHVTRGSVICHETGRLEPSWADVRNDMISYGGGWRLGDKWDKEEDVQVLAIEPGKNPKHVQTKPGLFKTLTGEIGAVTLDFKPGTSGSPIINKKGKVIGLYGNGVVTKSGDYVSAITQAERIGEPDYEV
T1 sequence (Q2YHF2 1397-1436 limits assumed): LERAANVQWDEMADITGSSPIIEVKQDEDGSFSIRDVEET
Protocol: Measurements with the dengue 4 virus protease construct (bD4Pro; expressed and purified by a similar methodology as described for bZiPro15 with slight modification of using Tobacco Etch Virus (TEV) protease instead of thrombin for His6‐tag cleavage) were performed in a Cytation 3 Mulitmode plate reader with λ ex at 380 nm and λ em at 460 nm. Assays were carried out as triplicate at 37 °C. Before measurement, the protease (final assay concentration 3 nM) was preincubated with varying concentrations of inhibitors in assay buffer (20 mM Tris pH 8.5, 10 % glycerol, 0.01 % Triton X‐100) for 1 h at room temperature in Corning black clear bottom 96‐well plates. The reaction was started by addition of the substrate Benzoyl‐Nle‐Lys‐Arg‐Arg‐AMC (final assay concentration 50 μM, K M=48.4 μM). Fluorescent readings were recorded at 1‐minute intervals over 10 minutes. The steady‐state rates v i in presence of inhibitor were calculated from the slopes of the progress curves using Graph Pad Prism. The v i values were fitted to Equation (2) as function of the inhibitor concentration [I] providing the IC50 values, where v 0 is the rate in absence of inhibitor and s a slope factor. The obtained IC50 values were finally converted into K i values by the Cheng‐Prusoff Equation (2).(2) vi=v0/1+I/IC50^s (3) Ki=IC50/1+S/KM

[2] = biological target: T2, bZiPro (unlinked binary Zika virus NS2B-NS3 protease) (Zika virus, UniProt A0A024B7W1); assay: Enzyme kinetics with bZiPro, fluorogenic substrate Phac-Leu-Lys-Lys-Arg-AMC
T2 construct: The viral protease consists of the N‐terminal third of the nonstructural protein NS3; the NS2B construct ends at Glu96; His6 (cleaved yes); made in house
Protocol: (§1) Enzyme kinetics. Measurements with bZiPro15 and the covalent WNV NS2B‐NS3 construct^10 were performed at room temperature in black 96 well plates using a Fluoroskan Ascent® plate reader (Thermo Fisher Scientific, Vantaa, Finland) with λ ex at 355 nm and λ em at 460 nm. Each well contained 125 μL inhibitor dissolved in buffer (for bZiPro: 20 mM Tris×HCl pH 8.5, 2 mM DTT, 10 w/v glycerol and 0.01 w/v Triton X‐100;18 for WNV protease: 100 mM Tris×HCl pH 8.5, containing 32 w/v glycerol and 0.01 w/v Triton X‐10012) and 50 μL substrate Phac‐Leu‐Lys‐Lys‐Arg‐AMC12 (40 μM for bZiPro (10 μM in assay, K M=1.4 μM) and 400 μM for the WNV protease (100 μM in assay, K M=53 μM)). The measurements were started by addition of 25 μL enzyme solution (16 nM for bZiPro (2.0 nM in assay), and 64 nM for the WNV protease (8.0 nM in assay)). Data points were collected each 15 s over a period of 10 min using eight different inhibitor concentrations. […] The K i values and their standard deviation were obtained from at least three independent measurements.(1) vi=Vmax×[S]/KM1+[I]/Ki+[S]
The constants K M and V max were obtained from independent measurements with six different substrate concentrations in absence of inhibitor. For inhibitor 10 with bZiPro, additional measurements at three substrate concentrations (10, 5, and 2.5 μM in assay) were performed to obtain the Dixon plot shown in Figure 4.

[3] = biological target: T3, WNV NS2B-NS3 protease (WNV-Pro) (West Nile virus, UniProt P06935); assay: Enzyme kinetics with the covalent WNV NS2B-NS3 construct, substrate Phac-Leu-Lys-Lys-Arg-AMC
T3 construct: NS3 has to form a complex with its cofactor NS2B to achieve proteolytic activity; The viral protease consists of the N‐terminal third of the nonstructural protein NS3
Protocol: as §1

[4] = K i bZiPro, mean±SD of at least three independent measurements, substrate 10 μM in assay, room temperature, pH 8.5
[5] = mean±SD of at least three independent measurements, 37 °C, IC50 converted into K i by Cheng-Prusoff, read-out: K i bD4Pro
[6] = mean±SD of at least three independent measurements, substrate 10 μM in assay, room temperature, pH 8.5, read-out: K i bZiPro
[7] = mean±SD of at least three independent measurements, substrate 100 μM in assay, room temperature, pH 8.5, read-out: K i WNV-Pro
[8] = K i against bZiPro / ZIKV protease, value given in running text

T2 sequence (A0A024B7W1 1503-1680 limits assumed): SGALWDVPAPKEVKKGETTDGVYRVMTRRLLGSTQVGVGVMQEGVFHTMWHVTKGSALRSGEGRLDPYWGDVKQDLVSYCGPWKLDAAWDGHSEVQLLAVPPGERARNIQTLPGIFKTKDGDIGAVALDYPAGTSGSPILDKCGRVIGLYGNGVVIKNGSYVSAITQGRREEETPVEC
T2 sequence (A0A024B7W1 1425-1464 limits assumed): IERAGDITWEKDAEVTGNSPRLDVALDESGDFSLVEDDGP
T3 sequence (P06935 1424-1463): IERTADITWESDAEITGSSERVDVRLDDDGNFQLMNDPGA
T3 sequence (P06935 1502-1679): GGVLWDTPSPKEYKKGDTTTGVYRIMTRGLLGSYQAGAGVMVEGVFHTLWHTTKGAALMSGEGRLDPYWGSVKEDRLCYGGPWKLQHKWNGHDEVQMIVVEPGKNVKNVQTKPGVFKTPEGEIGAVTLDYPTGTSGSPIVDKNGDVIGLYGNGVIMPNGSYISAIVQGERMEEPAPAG

Compound	Ki [1] [µM]	Ki [2, 4] [µM]	Ki [3] [µM]	also measured
N=C(N)N[C@@H]1CCCCNC(=O)[C@H](CCCCN)NC(=O)[C@H](CCCCN)NC(=O)CNC(=O)CNC(=O)CNC1=O [Inhibitor 25] (cyclo(GGGKK[dεLys(Nα-amidino)]))	0.378 ± 0.027	0.00374 ± 0.0002	0.129 ± 0.007	–
NCCCC[C@@H]1NC(=O)Cc2cccc(c2)CNC(=O)CNC(=O)[C@H](N)CCCCNC(=O)[C@H](CCCCN)NC1=O [Inhibitor 20] (H-[dK]G[NHCH2(1,3-C6H4)CH2CO]KK; lactam 1-C)	282	23	99	–
N=C(N)N[C@@H]1CCCCNC(=O)[C@H](CCCCN)NC(=O)[C@H](CCCCN)NC(=O)CCCCNC(=O)CNC1=O [Inhibitor 23]	1.12 ± 0.05	0.0167 ± 0.0034	1.22 ± 0.02	–
N=C(N)N[C@@H]1CCCCNC(=O)[C@H](CCCCN)NC(=O)[C@H](CCCCN)NC(=O)CCNC(=O)CNC(=O)CNC1=O [Inhibitor 26] (cyclo(GG[βAla]KK[dεLys(Nα-amidino)]))	–	–	–	Ki [1, 5]: 0.16 ± 0.005 µM; Ki [2, 6]: 0.00172 ± 3e-05 µM; Ki [3, 7]: 0.0686 ± 0.0131 µM
N=C(N)N[C@H]1CC[C@H](CNC(=O)[C@H](CCCCN)NC(=O)[C@H](CCCCN)NC(=O)Cc2ccc(Cl)c(Cl)c2)CC1 [Inhibitor 1, 3,4‐dichloro‐Phac‐Lys‐Lys‐GCMA, reference compound]	–	–	–	Ki [2, 8]: 0.014 µM
C[C@@H]1NC(=O)[C@H](NC(=N)N)CCCCNC(=O)[C@H](CCCCN)NC(=O)[C@H](CCCCN)NC(=O)Cc2cccc(c2)CNC1=O [Inhibitor 15]	3.6 ± 0.38	0.0182 ± 0.0051	1.39 ± 0.32	–
N=C(N)N[C@@H]1CCCCNC(=O)[C@H](CCCCN)NC(=O)[C@H](CCCCN)NC(=O)CNC(=O)CCNC(=O)CNC1=O [Inhibitor 27] (cyclo(G[βAla]GKK[dεLys(Nα-amidino)]))	–	–	–	Ki [1, 5]: 0.815 ± 0.079 µM; Ki [2, 6]: 0.00735 ± 0.00039 µM; Ki [3, 7]: 0.468 ± 0.003 µM
N=C(N)N[C@@H]1CCCNC(=O)[C@H](CCCCN)NC(=O)[C@H](CCCCN)NC(=O)Cc2ccc(cc2)CNC(=O)CCCNC1=O [Inhibitor 5]	60.5 ± 5.7	3.61 ± 1.33	22 ± 4	–
N=C(N)N[C@@H]1CCCCNC(=O)[C@H](CCCCN)NC(=O)[C@H](CCCCN)NC(=O)Cc2cccc(c2)CNC(=O)CCCNC1=O [Inhibitor 8]	0.286 ± 0.009	0.00433 ± 0.00035	0.702 ± 0.083	–
N=C(N)N[C@@H]1CCCCNC(=O)[C@H](CCCCN)NC(=O)[C@H](CCCCN)NC(=O)CNC(=O)CNC(=O)CCNC1=O [Inhibitor 28] (cyclo([βAla]GGKK[dεLys(Nα-amidino)]))	–	–	–	Ki [1, 5]: 2.72 ± 0.19 µM; Ki [2, 6]: 0.0128 ± 0.0005 µM; Ki [3, 7]: 0.974 ± 0.134 µM
C[C@H]1NC(=O)[C@H](NC(=N)N)CCCCNC(=O)[C@H](CCCCN)NC(=O)[C@H](CCCCN)NC(=O)Cc2cccc(c2)CNC1=O [Inhibitor 16]	0.125 ± 0.004	0.00352 ± 0.00109	0.237 ± 0.021	–
N=C(N)N[C@@H]1CCCCNC(=O)[C@H](CCCCN)NC(=O)[C@H](CCCCN)NC(=O)Cc2ccc(cc2)CNC(=O)CCCNC1=O [Inhibitor 4]	4.73 ± 0.5	0.0701 ± 0.0092	4.97 ± 0.5	–
NCCCC[C@@H]1NC(=O)Cc2ccc(cc2)CNC(=O)CCCNC(=O)[C@H](N)CCCCNC(=O)[C@H](CCCCN)NC1=O [Inhibitor 6]	–	–	–	Ki [1, 5]: 94.5 ± 11.6 µM; Ki [2, 6]: 24.7 ± 7.2 µM; Ki [3, 7]: 68.1 ± 5 µM
N=C(N)N[C@@H]1CCCCNC(=O)[C@H](CCCCN)NC(=O)[C@H](CCCCN)NC(=O)Cc2cccc(c2)CNC1=O [Inhibitor 12]	1.28 ± 0.05	0.0373 ± 0.0047	15.3 ± 0.8	–
N=C(N)N[C@@H]1CCCCNC(=O)[C@H](CCCCN)NC(=O)[C@H](CCCCN)NC(=O)CCCNC(=O)CNC1=O [Inhibitor 22]	6.09 ± 0.47	0.124 ± 0.008	6.7 ± 0.52	–
N=C(N)N[C@H](CCCCNC(=O)[C@H](CCCCN)NC(=O)[C@H](CCCCN)NC(=O)Cc1cccc(CNC(=O)CN)c1)C(N)=O [Inhibitor 30]	0.775 ± 0.047	0.0136 ± 0.0026	1.55 ± 0.38	fold improved potency compared with 29 ([2]; uncharged amide analogue versus free P1 carboxyl compound 29): more than 100 fold
N=C(N)N[C@@H]1CCCCNC(=O)[C@H](CCCCN)NC(=O)[C@H](CCCCN)NC(=O)Cc2cccc(c2)NC(=O)CCCNC1=O [Inhibitor 14]	5.8 ± 0.36	0.106 ± 0.029	16.5 ± 4.6	–
N=C(N)N[C@H](CCCCNC(=O)[C@H](CCCCN)NC(=O)[C@H](CCCCN)NC(=O)Cc1cccc(CNC(=O)CN)c1)C(=O)O [Inhibitor 29]	75 ± 3.4	2.04 ± 0.6	51.6 ± 0.7	times less potent inhibitor of bZiPro than analogue 10 ([2]; compared with cyclic analogue 10): more than 1000 times
N=C(N)N[C@@H]1CCCCNC(=O)[C@H](CCCCN)NC(=O)[C@H](CCCCN)NC(=O)Cc2cccc(c2)CNC(=O)[C@H]2CCCN2C1=O [Inhibitor 19]	4.08 ± 0.26	0.0177 ± 0.0005	0.85 ± 0.068	–
CC(C)[C@@H]1NC(=O)[C@H](NC(=N)N)CCCCNC(=O)[C@H](CCCCN)NC(=O)[C@H](CCCCN)NC(=O)Cc2cccc(c2)CNC1=O [Inhibitor 17]	2.81 ± 0.18	0.0428 ± 0.0022	6.71 ± 0.32	–
NCCCC[C@@H]1NC(=O)Cc2ccc(cc2)CNC(=O)CCCNC(=O)[C@H](N)CCCNC(=O)[C@H](CCCCN)NC1=O [Inhibitor 7]	–	–	–	Ki [1, 5]: 30.6 ± 3.9 µM; Ki [2, 6]: 13.2 ± 1.7 µM; Ki [3, 7]: 31.7 ± 3.6 µM
N=C(N)N[C@@H]1CCCCNC(=O)[C@H](CCCCN)NC(=O)[C@H](CCCCN)NC(=O)Cc2cccc(c2)NC(=O)CCNC1=O [Inhibitor 13]	7.96 ± 0.55	0.0802 ± 0.0097	4.28 ± 0.31	Ki [2, 8]: 0.08 µM
N=C(N)N[C@H]1CCCNC(=O)[C@H](CCCCN)NC(=O)[C@H](CCCCN)NC(=O)Cc2ccc(cc2)CNC(=O)CCCNC1=O [Inhibitor 3]	117 ± 5	0.846 ± 0.111	27.8 ± 4.4	–
CC(=O)NCc1cccc(CC(=O)N[C@@H](CCCCN)C(=O)N[C@@H](CCCCN)C(=O)NCCCC[C@@H](NC(=N)N)C(N)=O)c1 [Inhibitor 31]	1.21 ± 0.09	0.00948 ± 0.00061	1.48 ± 0.1	–
N=C(N)N[C@H]1CCCCNC(=O)[C@H](CCCCN)NC(=O)[C@H](CCCCN)NC(=O)Cc2ccc(cc2)CNC(=O)CCCNC1=O [Inhibitor 2]	11 ± 1	0.0918 ± 0.006	6.3 ± 0.49	–
N=C(N)N[C@@H]1CCCCNC(=O)[C@H](CCCCN)NC(=O)[C@H](CCCCN)NC(=O)Cc2cccc(c2)CNC(=O)CCNC1=O [Inhibitor 9]	0.182 ± 0.005	0.00388 ± 0.00081	0.374 ± 0.044	–
CC(=O)NCc1cccc(CC(=O)N[C@@H](CCCCN)C(=O)N[C@@H](CCCCN)C(=O)NCCCCCNC(=N)N)c1 [Inhibitor 32]	18.1 ± 1.2	0.0882 ± 0.0038	4.94 ± 0.53	–
CC(C)[C@H]1NC(=O)[C@H](NC(=N)N)CCCCNC(=O)[C@H](CCCCN)NC(=O)[C@H](CCCCN)NC(=O)Cc2cccc(c2)CNC1=O [Inhibitor 18]	0.486 ± 0.027	0.00774 ± 0.00066	0.439 ± 0.028	–
N=C(N)N[C@@H]1CCCCNC(=O)[C@H](CCCCN)NC(=O)[C@H](CCCCN)NC(=O)CCCCCNC(=O)CNC1=O [Inhibitor 24]	1.99 ± 0.09	0.0154 ± 0.0026	0.973 ± 0.173	–
